Test results as given in paper PMC11879040, “Advancing systemic toxicity risk assessment: Evaluation of a NAM-based toolbox approach” (Toxicological Sciences, 2024).
Where two headings read alike, the source gives them in different places.

Experiments:
[1] = system: Potassium Voltage-Gated Channel Kv non-selective, KCNQ1 (r); assay: IPP KCNQ1 binding (antagonist radioligand); set-up: species or system rat
[2] = system: Thyroid hormone receptor alpha, THRA (h); assay: IPP THRA coactivator recruitment (agonist); format: biochemical, human; details: 100 uM; agonist; T3; * denotes assay interference (2-Amino-6-chloro-4-nitrophenol, HC Red 3)
[3] = biological target: Potassium voltage-gated channel subfamily H member 2 hERG, KCNH2 (h) (Homo sapiens, UniProt Q12809)
Sequence of Potassium voltage-gated channel subfamily H member 2 hERG, KCNH2 (h) (Q12809 whole entry): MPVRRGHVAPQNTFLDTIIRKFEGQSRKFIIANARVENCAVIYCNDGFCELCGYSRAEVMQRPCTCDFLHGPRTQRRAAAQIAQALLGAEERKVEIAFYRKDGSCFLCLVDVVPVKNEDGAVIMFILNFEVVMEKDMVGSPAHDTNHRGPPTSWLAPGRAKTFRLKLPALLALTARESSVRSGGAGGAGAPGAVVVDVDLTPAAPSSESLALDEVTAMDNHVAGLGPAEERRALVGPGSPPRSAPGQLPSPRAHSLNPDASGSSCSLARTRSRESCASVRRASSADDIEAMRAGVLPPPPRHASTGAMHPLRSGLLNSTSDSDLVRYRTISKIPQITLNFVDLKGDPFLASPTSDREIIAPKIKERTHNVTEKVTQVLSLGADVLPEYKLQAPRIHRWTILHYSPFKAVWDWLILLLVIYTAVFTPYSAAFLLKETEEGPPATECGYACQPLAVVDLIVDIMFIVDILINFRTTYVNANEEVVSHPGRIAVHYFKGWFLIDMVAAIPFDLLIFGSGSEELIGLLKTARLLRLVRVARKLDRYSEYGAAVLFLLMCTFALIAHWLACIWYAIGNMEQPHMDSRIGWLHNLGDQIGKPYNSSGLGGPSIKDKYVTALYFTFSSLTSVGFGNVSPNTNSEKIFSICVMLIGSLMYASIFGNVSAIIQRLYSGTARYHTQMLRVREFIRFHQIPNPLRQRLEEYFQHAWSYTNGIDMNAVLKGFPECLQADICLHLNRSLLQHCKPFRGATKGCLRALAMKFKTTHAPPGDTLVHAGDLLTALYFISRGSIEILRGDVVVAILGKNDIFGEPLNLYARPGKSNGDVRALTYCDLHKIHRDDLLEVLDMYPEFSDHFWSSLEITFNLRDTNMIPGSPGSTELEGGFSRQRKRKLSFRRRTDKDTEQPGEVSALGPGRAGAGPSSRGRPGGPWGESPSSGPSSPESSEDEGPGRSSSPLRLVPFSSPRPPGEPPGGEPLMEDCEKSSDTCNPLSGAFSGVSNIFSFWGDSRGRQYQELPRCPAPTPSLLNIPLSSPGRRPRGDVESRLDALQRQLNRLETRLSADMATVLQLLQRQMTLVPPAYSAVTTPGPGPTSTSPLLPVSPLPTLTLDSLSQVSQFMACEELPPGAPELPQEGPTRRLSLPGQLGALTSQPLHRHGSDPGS

[4] = system: Sodium channel protein type 5 subunit alpha (site 2), SCN5A (r); format: binding, rat; details: IPP screening at 100 uM; control veratridine
[5] = biological target: T1, Adenosine receptor A2a, ADORA2A (h) (Homo sapiens, UniProt P29274); assay: IPP ADORA2A binding (agonist radioligand); details: IPP screening at 100 uM; control NECA
T1 construct: purchased Eurofins Cerep (SafetyScreen44-based IPP panel)
T1 sequence (P29274 whole entry): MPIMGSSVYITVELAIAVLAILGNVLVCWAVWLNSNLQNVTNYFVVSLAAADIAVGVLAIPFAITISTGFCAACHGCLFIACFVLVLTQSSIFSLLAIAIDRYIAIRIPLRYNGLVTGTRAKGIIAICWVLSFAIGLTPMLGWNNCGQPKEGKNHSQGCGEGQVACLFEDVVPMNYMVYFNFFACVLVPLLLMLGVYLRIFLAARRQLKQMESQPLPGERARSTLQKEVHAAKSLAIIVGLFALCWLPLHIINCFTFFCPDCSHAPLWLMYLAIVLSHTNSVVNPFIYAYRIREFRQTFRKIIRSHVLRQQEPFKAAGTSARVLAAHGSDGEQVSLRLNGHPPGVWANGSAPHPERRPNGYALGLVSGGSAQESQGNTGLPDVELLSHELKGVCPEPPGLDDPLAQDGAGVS

[6] = biological target: T2, Constitutive androstane receptor CAR, NR1I3 (h) (Homo sapiens, UniProt Q14994); format: biochemical
T2 sequence (Q14994 1-352): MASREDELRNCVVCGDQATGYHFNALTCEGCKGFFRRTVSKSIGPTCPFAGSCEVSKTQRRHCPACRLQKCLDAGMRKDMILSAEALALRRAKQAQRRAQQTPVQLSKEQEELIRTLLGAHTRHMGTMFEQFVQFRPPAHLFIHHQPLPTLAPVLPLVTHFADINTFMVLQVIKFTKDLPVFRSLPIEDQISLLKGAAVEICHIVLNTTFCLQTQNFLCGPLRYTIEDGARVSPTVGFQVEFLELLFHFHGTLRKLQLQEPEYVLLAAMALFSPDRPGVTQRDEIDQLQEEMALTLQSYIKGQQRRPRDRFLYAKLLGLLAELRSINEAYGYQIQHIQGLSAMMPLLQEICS

[7] = biological target: T3, Pregnane X receptor PXR, NR1I2 (h) (Homo sapiens, UniProt O75469)
T3 sequence (O75469 1-434): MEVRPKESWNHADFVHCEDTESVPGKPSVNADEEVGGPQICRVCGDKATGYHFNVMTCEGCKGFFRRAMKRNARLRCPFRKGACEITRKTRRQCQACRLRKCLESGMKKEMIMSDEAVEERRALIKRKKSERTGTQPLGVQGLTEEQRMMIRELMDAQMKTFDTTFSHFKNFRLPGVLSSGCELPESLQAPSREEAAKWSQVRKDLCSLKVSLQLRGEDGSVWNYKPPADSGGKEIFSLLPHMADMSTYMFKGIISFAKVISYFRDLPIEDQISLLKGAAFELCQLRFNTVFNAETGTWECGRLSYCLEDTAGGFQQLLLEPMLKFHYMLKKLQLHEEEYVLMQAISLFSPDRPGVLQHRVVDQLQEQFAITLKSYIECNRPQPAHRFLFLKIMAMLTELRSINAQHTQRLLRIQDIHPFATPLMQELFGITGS

[8] = human
Tubulin (r) = assay: IPP Tubulin binding; set-up: species or system rat; details: 100 uM; ligand/control Colchicine
[9] = system: Gamma-aminobutyric acid receptor subunit alpha-1 BZD site, GABRA1A (r); format: binding, rat; details: IPP screening at 100 uM; control diazepam
[10] = system: Glutamate receptor ionotropic NMDA 1 non-selective, GRIN1 (r); details: IPP screening at 100 uM; control CGS 19755
mouse = details: ref SCCS; cited from earlier work
HepG2 cells [11] = assay: Cell stress panel (CSP), 24 h, 8 concentrations, BIFROST global PoD; format: cell-based; details: HepG2; cell stress panel PoD
Protocol: Compounds were tested using the previously developed cell stress panel ([Hatherell et al. 2020]) and the expanded biomarker panel outlined in Middleton et al. HepG2 cells were treated with all compounds for 24 h across 8 concentrations prior to biomarker analysis. The same plate layout and number of replicates (3 biological and 2 technical) were used as previously for each assay within the panel.

[12] = PBK model plasma Cmax estimate (Gastroplus 9.8; levels L1, L2, L3); set-up: species or system human; details: therapeutic uses
MCF7 cells = assay: High-throughput transcriptomics (HTTr, TempO-Seq), MCF7, 24 h; format: cell-based, human; details: MCF-7
Protocol: (§1) HepG2, HepaRG, and MCF7 cells were treated with each compound for 24 h across a dose range of 7 concentrations and lysed using TempO-Seq lysis buffer (BioSpyder Technologies, proprietary kit, see [Middleton et al. 2022] for method details). Sequencing was performed using TempO-Seq (BioClavis) version 2 of the human whole transcriptome panel and analyzed as described previously in Middleton et al.

HepaRG cells = assay: High-throughput transcriptomics (HTTr, TempO-Seq), HepaRG, 24 h; format: cell-based, human
Protocol: as §1

[13] = PBK input, level L2; ref [10]; cited from earlier work
HepG2 cells [14] = assay: High-throughput transcriptomics (HTTr, TempO-Seq), HepG2, 24 h; format: cell-based, human; details: HepG2
Protocol: as §1

[15] = biological target: vitamin K epoxide reductase enzyme (VKORC1); details: ref Bevans et al. 2013, cited from earlier work
[16] = human; remark: listed apart in the source
[17] = biological target: Voltage-dependent L-type Ca2+ channel (dihydropyridine site), CACNA1C (r) (Rattus norvegicus, UniProt P22002); format: binding; details: IPP screening at 100 uM; control nitrendipine
Sequence of Voltage-dependent L-type Ca2+ channel (dihydropyridine site), CACNA1C (r) (P22002 whole entry): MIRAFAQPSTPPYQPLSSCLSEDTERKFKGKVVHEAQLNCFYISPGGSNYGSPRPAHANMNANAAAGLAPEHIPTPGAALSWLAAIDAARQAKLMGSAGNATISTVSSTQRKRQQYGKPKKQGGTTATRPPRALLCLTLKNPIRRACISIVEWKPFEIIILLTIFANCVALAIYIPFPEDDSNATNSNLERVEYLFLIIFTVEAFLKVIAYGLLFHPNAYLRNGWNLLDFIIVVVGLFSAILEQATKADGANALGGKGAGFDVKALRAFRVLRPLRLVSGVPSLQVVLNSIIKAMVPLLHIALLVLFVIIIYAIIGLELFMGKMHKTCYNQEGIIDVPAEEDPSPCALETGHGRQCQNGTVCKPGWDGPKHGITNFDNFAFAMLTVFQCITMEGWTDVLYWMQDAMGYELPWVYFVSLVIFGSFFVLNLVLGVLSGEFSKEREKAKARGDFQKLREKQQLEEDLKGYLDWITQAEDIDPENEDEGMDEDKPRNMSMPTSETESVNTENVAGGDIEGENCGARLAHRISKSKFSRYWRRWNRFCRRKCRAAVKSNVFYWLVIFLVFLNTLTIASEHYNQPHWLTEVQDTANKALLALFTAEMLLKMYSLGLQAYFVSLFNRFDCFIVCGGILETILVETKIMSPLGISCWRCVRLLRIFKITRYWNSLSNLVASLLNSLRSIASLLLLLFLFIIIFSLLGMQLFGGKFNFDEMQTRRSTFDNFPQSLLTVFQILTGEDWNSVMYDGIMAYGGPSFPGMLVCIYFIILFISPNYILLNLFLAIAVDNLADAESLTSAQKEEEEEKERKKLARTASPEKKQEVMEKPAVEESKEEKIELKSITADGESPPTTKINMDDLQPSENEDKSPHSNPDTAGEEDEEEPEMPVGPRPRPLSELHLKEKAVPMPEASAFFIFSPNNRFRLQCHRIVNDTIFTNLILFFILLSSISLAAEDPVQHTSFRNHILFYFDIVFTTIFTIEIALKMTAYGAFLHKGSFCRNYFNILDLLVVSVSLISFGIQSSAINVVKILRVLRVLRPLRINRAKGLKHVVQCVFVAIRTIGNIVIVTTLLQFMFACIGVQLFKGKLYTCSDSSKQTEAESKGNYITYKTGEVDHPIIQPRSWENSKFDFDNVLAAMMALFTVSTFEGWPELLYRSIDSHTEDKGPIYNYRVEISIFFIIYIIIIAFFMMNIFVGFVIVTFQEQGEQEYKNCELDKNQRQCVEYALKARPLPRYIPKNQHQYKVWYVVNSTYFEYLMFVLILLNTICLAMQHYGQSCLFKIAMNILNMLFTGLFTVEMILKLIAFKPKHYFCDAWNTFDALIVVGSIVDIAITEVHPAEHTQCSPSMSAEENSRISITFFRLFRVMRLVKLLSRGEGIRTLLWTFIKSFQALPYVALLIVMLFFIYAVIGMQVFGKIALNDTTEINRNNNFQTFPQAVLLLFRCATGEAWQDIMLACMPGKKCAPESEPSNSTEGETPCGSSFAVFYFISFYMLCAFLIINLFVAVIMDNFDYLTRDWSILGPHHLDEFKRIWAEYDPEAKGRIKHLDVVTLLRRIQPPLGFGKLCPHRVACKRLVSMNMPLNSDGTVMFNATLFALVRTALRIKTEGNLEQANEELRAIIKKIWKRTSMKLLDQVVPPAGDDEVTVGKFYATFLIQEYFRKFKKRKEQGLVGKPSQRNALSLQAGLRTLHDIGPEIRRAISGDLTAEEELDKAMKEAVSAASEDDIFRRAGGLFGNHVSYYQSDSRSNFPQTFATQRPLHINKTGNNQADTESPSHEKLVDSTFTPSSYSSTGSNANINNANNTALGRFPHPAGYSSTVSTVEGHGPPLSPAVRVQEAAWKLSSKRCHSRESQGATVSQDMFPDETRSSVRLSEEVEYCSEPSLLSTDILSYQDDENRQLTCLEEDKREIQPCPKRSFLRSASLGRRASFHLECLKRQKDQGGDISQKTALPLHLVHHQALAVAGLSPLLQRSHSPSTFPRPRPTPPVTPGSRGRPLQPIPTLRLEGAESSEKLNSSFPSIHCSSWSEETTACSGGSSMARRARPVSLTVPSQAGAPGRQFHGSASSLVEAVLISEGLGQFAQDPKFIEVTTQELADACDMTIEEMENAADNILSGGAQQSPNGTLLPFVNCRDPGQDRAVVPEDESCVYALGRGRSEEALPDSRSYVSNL

[18] = human, cited from earlier work
[19] = PO 15 mg, tablet, 8 male, Fasted, calibration, ref Stirling Y, et al. British Journal of Haematology (1982) 51: 37-46

Nc1ccc(NCCO)c([N+](=O)[O-])c1 [HC Red 3, 2-(4-Amino-2-nitroanilino)ethan-1-ol]
Specific binding ([1]; IPP screening at 100 uM, control α-dendrotoxin): -2.7% | IPP screening %, Coactivator recruitment [2]: 628.0* % | IPP screening %, Specific binding ([3]; 100 uM, [3H] Dofetilide, control Terfenadine): 16.3% | Specific binding [4]: 38.7% | Specific binding [5]: 18.0% | IPP Dose Response PoD: CAR antagonist effect [6]: [29.7,46.9] | IPP Dose Response PoD: PXR antagonist [7]: [4.11, 6.71] | risk [8]: 0 | IPP screening %, Specific binding (Tubulin (r)): -13.0% | Specific binding [9]: 16.3% | Specific binding [10]: 0.4% | NOAEL before adjustment for 5 day dosing regimen (mouse): NOAEL of 125 mkd adjusted for 5 day dosing regimen. 90 mkd used as critical PoD by SCCS | pod_cell_stress PoD (HepG2 cells [11]): 1.583 µM

CC(=O)CC(c1ccccc1)c1c([O-])c2ccccc2oc1=O.[Na+] (stereo not shown) [Warfarin, Sodium 2-oxo-3-(3-oxo-1-phenylbutyl)-2H-1-benzopyran-4-olate]
underprediction of the L3 result at L2 (Cmax) [12]: ≥ 5 fold | pod_httr_bifrost PoD (MCF7 cells; HTTr BIFROST PoD): 19.7041 µM | podl_path_minbmd PoD (MCF7 cells; HTTr minimum pathway BMD(L)): 167.012 µM | HepaRG minimum pathway BMDL (HepaRG cells; BMDExpress2, highest of the chemical's PoDs): 259 µM | pod_httr_bifrost PoD (HepaRG cells; HepaRG, HTTr BIFROST PoD): 13.5544 µM | podl_path_minbmd PoD (HepaRG cells; HepaRG, HTTr minimum pathway BMD(L)): 258.74 µM | HepaRG BIFROST global PoD (HepaRG cells; lowest of the chemical's PoDs): 13.6 µM | Fup [13]: 2% | Specific binding [1]: 7.0% | IPP screening %, Coactivator recruitment [2]: -2.0% | IPP screening %, Specific binding ([3]; human): 10.1% | Specific binding [4]: 0.7% | pod_httr_bifrost PoD (HepG2 cells [14]; HTTr BIFROST PoD): 14.2833 µM | podl_path_minbmd PoD (HepG2 cells [14]; HTTr minimum pathway BMD(L)): 164.109 µM | IC50 ([15]; read-out: IC50 on the VKORC1 enzyme, lower end of literature range): 0.0247 µM | IC50 ([15]; read-out: IC50 on the VKORC1 enzyme, upper end of literature range): 4 µM | Intrinsic Liver Clearance [16]: 14.41 L/h | Specific binding [5]: -14.2% | Specific binding [17]: -1.9% | IPP screening %, Specific binding (Tubulin (r)): 3.0% | Reported AUC0-t [18, 19]: 54300 ng·h/mL | Reported cmax [18, 19]: 1.305 µg/mL | Reported tmax [18, 19]: 1 h | Cmax ([18]; read-out: typical Cmax reported in the literature, ref literature, not specified): 0.6 to 6 µM | Specific binding [9]: 0.6% | Specific binding [10]: 7.9% | pod_cell_stress PoD (HepG2 cells [11]): 13.7726 µM
